Experimental data as given in patent US20240287080A1 (IDEAYA Biosciences Inc., priority 2021, published 2024).

Each molecule was assayed against T1, Pol theta (1-899) (Homo sapiens, UniProt O75417) (assay: Pol theta ATPase activity, NADH oxidation-coupled enzymatic assay (ATPase NADH coupling: Standard Screening: hPolQ)). Conditions: Pol theta (1-899) 5 nM, NADH oxidation-coupled ATPase assay; compounds of Table 3.
T1 construct: Pol theta (1-899) (5 nM) in assay buffer
Type: biochemical
Summary of the method: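 Rates of ATP hydrolysis taken from 60-min A340 traces of NADH oxidation via PK/LDH coupling, then fit four-parameter for IC50, Hill slope and max inhibition. Enzyme (5 nM, 1-899) and compounds preincubated 15 min before ATP 100 μM and 50-thymine ssDNA 300 nM (stock, equal volume added).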

T1 sequence (O75417 1-899): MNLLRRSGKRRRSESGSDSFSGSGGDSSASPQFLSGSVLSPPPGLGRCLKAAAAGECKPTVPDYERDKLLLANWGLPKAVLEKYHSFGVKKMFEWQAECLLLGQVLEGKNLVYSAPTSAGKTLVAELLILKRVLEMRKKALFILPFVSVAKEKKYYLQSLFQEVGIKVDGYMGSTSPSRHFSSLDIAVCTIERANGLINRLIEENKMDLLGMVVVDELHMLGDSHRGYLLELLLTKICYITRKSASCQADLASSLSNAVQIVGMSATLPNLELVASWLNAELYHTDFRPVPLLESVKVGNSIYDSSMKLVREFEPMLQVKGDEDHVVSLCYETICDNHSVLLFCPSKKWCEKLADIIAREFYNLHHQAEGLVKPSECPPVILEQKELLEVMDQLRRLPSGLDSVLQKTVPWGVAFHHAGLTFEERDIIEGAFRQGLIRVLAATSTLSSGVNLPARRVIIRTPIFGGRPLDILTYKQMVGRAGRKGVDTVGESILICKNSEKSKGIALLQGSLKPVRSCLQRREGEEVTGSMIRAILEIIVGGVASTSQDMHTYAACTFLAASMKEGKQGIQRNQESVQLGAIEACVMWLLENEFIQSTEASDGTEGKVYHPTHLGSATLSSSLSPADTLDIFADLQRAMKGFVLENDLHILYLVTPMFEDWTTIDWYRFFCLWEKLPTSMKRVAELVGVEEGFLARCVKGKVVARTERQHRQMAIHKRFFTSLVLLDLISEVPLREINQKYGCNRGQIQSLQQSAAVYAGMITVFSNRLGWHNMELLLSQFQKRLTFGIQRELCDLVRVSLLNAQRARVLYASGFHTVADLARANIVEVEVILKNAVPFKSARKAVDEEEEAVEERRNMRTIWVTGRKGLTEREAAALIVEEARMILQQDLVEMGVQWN

Question: With `COc1nnc(NC(=O)c2cnc(C)cc2-c2cccc(OC)c2F)s1` [Example 446, 4-(2-fluoro-3-methoxyphenyl)-N-(5-methoxy-1,3,4-thiadiazol-2-yl)-6-methylpyridine-3-carboxamide] as the molecule, how does the IC50 read?
Answer: 1000 to 10000 nM

Question: How did the IC50 turn out when `COc1nnc(NC(=O)c2cnc(C)cc2-c2cnccc2C(F)(F)F)s1` [Example 481, N-(5-methoxy-1,3,4-thiadiazol-2-yl)-6′-methyl-4-(trifluoromethyl)-[3,4′-bipyridine]-3′-carboxamide] was run?
Answer: 1000 to 10000 nM

Question: `COc1nnc(NC(=O)c2cnc(C)cc2-c2cnc(N(C)C)nc2)s1` [Example 458, 4-(2-(dimethylamino)pyrimidin-5-yl)-N-(5-methoxy-1,3,4-thiadiazol-2-yl)-6-methylnicotinamide] was tested. Which IC50 did it give?
Answer: 1000 to 10000 nM

Question: With `COc1nnc(NC(=O)c2cnc(C)cc2-c2ccc(S(=O)(=O)N(C)C)cc2)s1` [Example 382, 4-[4-(dimethylsulfamoyl)phenyl]-N-(5-methoxy-1,3,4-thiadiazol-2-yl)-6-methylpyridine-3-carboxamide] as the molecule, how does the IC50 read?
Answer: 1000 to 10000 nM

Question: Which IC50 does the source give for `COc1nnc(NC(=O)c2cnc(C)cc2-c2ccc3nc[nH]c3c2)s1` [Example 490, 4-(1H-1,3-benzodiazol-6-yl)-N-(5-methoxy-1,3,4-thiadiazol-2-yl)-6-methylpyridine-3-carboxamide] here?
Answer: 1000 to 10000 nM

Question: For `COc1nnc(NC(=O)c2cnc(C)cc2-c2cncc(C(=O)NC3CC3)c2)s1` [Example 403, N5-cyclopropyl-N3′-(5-methoxy-1,3,4-thiadiazol-2-yl)-6′-methyl-[3,4′-bipyridine]-3′,5-dicarboxamide], which IC50 is on record?
Answer: 1000 to 10000 nM

Question: How did the IC50 turn out when `COc1nnc(NC(=O)c2cnc(C)cc2-c2ccc3[nH]ncc3c2)s1` [Example 487, 4-(1H-indazol-5-yl)-N-(5-methoxy-1,3,4-thiadiazol-2-yl)-6-methylnicotin amide] was run?
Answer: 500 to 1000 nM

Question: How did the IC50 turn out when `COc1cnc(Cl)cc1-c1cc(C)ncc1C(=O)Nc1nnc(OC2(C3CCOC3)CC2)s1` (stereo not drawn) [Example 288, 2′-chloro-5′-methoxy-6-methyl-N-(5-(1-(tetrahydrofuran-3-yl)cyclopropoxy)-1,3,4-thiadiazol-2-yl)-[4,4′-bipyridine]-3-carboxamide] was run?
Answer: ≤ 200 nM

Question: How did the IC50 turn out when `COc1nnc(NC(=O)c2ccc([N+](=O)[O-])cc2-c2cc(Cl)ncc2OC)s1` [Example 300, 2-(2-chloro-5-methoxypyridin-4-yl)-N-(5-methoxy-1,3,4-thiadiazol-2-yl)-4-nitrobenzamide] was run?
Answer: ≤ 200 nM

Question: For `COc1nnc(NC(=O)c2cnc(C)cc2-c2cccs2)s1` [Example 360, N-(5-methoxy-1,3,4-thiadiazol-2-yl)-6-methyl-4-(thiophen-2-yl)pyridine-3-carboxamide], which IC50 is on record?
Answer: 1000 to 10000 nM

Same assay, conditions: Table 4; Pol theta (1-899) 5 nM, ATP, dT50 ssDNA

Question: `COc1nnc(NC(=O)c2cnc(C)cc2-c2cc(C(F)(F)F)ncc2OC)s1` [Example 57, 5′-methoxy-N-(5-methoxy-1,3,4-thiadiazol-2-yl)-6-methyl-2′-(trifluoromethyl)-(4,4′-bipyridine)-3-carboxamide] was tested. Which IC50 did it give?
Answer: ≤ 200 nM

Question: `CCCOc1nnc(NC(=O)c2cnc(C)cc2-c2cc(Cl)ncc2OC)s1` [Example 37, 2′-chloro-5′-methoxy-6-methyl-N-(5-propoxy-1,3,4-thiadiazol-2-yl)-(4,4′-bipyridine)-3-carboxamide] was tested. Which IC50 did it give?
Answer: ≤ 200 nM

Question: How did the IC50 turn out when `CCc1cnc(Cl)cc1-c1cc(C)ncc1C(=O)Nc1nnc(OC)s1` [Example 49, 2′-chloro-5′-ethyl-N-(5-methoxy-1,3,4-thiadiazol-2-yl)-6-methyl-(4,4′-bipyridine)-3-carboxamide] was run?
Answer: ≤ 200 nM

Same assay, conditions: Table 5; Pol theta (1-899) 5 nM, ATP, dT50 ssDNA

Question: How did the IC50 turn out when `COCc1cc(-c2cc(Cl)ncc2OC)c(C(=O)Nc2nnc(O[C@@H]3CCOC3)s2)cn1` [Example 142, (R)-2′-chloro-5′-methoxy-6-(methoxymethyl)-N-(5-((tetrahydrofuran-3-yl)oxy)-1,3,4-thiadiazol-2-yl)-(4,4′-bipyridine)-3-carboxamide] was run?
Answer: ≤ 200 nM

Question: `COc1cnc(Br)cc1-c1cc(C)ncc1C(=O)Nc1nnc(O[C@@H]2COC3(CC3)C2)s1` (single isomer, unassigned) [Example 226] was tested. Which IC50 did it give?
Answer: ≤ 200 nM
